The target of the experiment is T1, Exodeoxyribonuclease V (Escherichia coli (strain K12), UniProt P04993+P07648+P08394).
T1 sequence (P04993 whole entry): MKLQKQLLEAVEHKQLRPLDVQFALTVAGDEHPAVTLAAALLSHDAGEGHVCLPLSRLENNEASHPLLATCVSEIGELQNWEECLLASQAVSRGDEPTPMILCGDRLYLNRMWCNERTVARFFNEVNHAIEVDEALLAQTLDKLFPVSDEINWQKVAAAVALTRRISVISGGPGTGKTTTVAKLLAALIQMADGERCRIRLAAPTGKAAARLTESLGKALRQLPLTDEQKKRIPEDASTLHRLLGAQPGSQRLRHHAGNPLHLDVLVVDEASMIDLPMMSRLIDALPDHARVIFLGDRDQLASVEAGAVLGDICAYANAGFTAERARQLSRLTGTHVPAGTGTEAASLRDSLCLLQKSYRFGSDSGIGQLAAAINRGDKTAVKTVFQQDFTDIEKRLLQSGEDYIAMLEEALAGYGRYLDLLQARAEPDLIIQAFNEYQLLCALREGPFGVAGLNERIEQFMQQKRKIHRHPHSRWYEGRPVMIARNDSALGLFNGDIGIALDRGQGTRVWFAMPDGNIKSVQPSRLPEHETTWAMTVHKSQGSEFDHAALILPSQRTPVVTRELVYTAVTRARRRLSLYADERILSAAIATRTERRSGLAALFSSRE
T1 sequence (P07648 whole entry): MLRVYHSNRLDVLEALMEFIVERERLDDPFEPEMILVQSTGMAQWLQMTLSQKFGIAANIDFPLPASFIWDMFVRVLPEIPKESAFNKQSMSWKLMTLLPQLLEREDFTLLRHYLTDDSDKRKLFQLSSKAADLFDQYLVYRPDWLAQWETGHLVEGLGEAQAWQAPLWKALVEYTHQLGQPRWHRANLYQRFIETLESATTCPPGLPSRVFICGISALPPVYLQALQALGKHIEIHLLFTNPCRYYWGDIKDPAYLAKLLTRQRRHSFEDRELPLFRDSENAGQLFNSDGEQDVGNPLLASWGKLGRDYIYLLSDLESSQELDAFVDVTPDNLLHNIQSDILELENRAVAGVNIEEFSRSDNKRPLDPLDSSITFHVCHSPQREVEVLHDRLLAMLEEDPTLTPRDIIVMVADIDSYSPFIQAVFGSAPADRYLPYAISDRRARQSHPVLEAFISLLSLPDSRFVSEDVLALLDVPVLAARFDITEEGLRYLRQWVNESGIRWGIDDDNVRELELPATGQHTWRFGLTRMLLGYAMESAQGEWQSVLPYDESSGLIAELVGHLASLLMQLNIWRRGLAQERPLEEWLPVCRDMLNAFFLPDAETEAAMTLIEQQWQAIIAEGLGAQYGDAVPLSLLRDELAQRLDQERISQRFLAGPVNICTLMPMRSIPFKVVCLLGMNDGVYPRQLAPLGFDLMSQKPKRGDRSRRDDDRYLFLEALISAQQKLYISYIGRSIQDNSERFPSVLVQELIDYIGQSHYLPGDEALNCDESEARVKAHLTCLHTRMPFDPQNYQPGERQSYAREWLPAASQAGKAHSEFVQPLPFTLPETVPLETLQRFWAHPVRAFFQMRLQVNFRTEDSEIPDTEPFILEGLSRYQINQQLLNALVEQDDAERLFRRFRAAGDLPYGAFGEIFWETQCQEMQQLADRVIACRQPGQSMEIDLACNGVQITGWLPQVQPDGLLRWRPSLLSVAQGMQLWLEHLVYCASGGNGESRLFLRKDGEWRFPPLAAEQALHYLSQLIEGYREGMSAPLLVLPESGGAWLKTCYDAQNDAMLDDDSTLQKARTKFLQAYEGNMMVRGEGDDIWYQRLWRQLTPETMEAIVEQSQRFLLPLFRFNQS
T1 sequence (P08394 whole entry): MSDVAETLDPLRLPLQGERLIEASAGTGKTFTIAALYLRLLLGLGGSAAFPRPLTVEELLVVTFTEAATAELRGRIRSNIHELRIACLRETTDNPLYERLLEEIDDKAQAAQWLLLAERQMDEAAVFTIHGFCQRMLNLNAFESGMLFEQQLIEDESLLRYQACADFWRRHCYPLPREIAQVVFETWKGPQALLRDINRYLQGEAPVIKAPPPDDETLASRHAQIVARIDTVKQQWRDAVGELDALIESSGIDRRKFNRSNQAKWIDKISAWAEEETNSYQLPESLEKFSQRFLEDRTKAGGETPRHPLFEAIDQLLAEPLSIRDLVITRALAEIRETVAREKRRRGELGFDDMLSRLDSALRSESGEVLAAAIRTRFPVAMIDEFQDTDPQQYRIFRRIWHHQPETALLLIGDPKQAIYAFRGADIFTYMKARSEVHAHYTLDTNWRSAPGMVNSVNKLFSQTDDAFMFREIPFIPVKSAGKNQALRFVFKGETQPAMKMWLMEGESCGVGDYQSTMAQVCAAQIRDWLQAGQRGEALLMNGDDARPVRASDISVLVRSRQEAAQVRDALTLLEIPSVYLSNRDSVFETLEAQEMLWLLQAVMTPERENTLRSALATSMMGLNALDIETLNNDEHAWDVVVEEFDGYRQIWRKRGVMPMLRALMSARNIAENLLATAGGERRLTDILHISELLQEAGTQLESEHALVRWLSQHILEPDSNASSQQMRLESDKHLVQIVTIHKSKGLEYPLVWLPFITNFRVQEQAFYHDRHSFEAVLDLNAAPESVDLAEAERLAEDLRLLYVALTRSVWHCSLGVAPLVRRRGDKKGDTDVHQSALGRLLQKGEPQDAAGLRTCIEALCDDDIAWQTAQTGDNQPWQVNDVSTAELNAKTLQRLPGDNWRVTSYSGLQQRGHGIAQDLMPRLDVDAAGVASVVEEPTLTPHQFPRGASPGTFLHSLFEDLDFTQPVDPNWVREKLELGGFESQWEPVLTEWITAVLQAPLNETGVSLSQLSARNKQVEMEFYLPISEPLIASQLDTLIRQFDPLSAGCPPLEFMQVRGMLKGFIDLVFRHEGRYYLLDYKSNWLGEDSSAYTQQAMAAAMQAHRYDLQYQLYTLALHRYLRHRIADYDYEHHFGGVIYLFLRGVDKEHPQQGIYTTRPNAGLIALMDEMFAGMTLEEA
The experiment is described as follows: E. coli RecBCD inhibitors, dose response, counter-screen for AddAB inhibitor project, absorbance, V66 E. coli, mutant T4 phage (AID 492957). It is filed as functional, cell-based, Escherichia coli str. K-12 substr. MG1655. In general terms: A counterscreen serves to expose hits that act by an unwanted route or on another target.

Calls of active or inactive are those of the source. The rule behind the calls is not given here.

Usually IC50 stands for the concentration that inhibits the measured activity by half. For the compound `CCCCC(=O)NC(c1ccc(N(CC)CC)cc1)c1ccc2cccnc2c1O` (stereo unspecified), the IC50 is > 119 µM (inactive).

These data come from ChEMBL document CHEMBL1201862, “PubChem BioAssay data set” (2004).
